Experimental data reported in ChEMBL document CHEMBL5500349, “Discovery of ganoderic acid A (GAA) PROTACs as MDM2 protein degraders for the treatment of breast cancer” (Eur J Med Chem, 2024).
Calls of active or inactive are those of the source. The calls are words filed in the database; no cut-off is given here.

What was measured:
MCF7 = experiment: Antiproliferative activity against human MCF7 cells assessed as cell viability at 100 uM incubated for 48 to 72 hrs by MTT assay; type: functional; details: time 48-72 hrs, read-out: Activity
MDA-MB-231 [1] = experiment: Antiproliferative activity against human MDA-MB-231 cells assessed as cell viability at 100 uM incubated for 48 to 72 hrs by MTT assay; type: functional; details: time 48-72 hrs, read-out: Activity
SJSA-1 = experiment: Antiproliferative activity against human SJSA-1 cells assessed as cell viability at 100 uM incubated for 48 to 72 hrs by MTT assay; type: functional; details: time 48-72 hrs, read-out: Activity
HepG2 = experiment: Antiproliferative activity against human HepG2 cells assessed as cell viability at 100 uM incubated for 48 to 72 hrs by MTT assay; type: functional; details: time 48-72 hrs, read-out: Activity
[2] = Cytotoxicity against mouse HT-22 cells assessed as cell viability at 100 uM incubated for 48 to 72 hrs by MTT assay; type: toxicity, cell-based; details: time 48-72 hrs, read-out: Activity
[3] = biological target: T1, von Hippel-Lindau disease tumor suppressor/E3 ubiquitin-protein ligase Mdm2 (Homo sapiens, UniProt Q00987+P40337); experiment: Protac activity at VHL/MDM2 in human MDA-MB-231 cells assessed as reduction in MDM2 protein level after 48 hrs by Western blotting analysis; type: cell-based; details: dose 20-80 µM
T1 sequence (P40337 whole entry, looked up): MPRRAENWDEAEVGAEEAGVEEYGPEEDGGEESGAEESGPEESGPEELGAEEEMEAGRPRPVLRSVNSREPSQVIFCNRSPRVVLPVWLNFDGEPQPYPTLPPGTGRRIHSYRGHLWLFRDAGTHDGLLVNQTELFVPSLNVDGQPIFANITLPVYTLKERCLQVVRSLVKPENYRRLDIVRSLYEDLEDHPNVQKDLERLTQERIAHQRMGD
T1 sequence (Q00987 whole entry, looked up): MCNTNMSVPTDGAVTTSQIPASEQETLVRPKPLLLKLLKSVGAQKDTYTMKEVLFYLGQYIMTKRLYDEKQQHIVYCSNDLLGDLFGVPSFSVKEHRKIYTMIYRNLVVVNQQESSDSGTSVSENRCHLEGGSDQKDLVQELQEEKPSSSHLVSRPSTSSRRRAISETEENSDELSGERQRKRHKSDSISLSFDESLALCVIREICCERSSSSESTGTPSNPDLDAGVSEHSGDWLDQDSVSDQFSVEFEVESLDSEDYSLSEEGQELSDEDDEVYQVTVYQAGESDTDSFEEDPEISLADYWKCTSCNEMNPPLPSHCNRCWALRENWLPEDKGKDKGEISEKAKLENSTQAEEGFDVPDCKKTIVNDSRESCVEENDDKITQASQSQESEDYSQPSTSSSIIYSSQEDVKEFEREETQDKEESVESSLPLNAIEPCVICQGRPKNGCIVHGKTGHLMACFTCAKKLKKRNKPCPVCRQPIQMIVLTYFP

[4] = biological target: T1, von Hippel-Lindau disease tumor suppressor/E3 ubiquitin-protein ligase Mdm2; experiment: Protac activity at VHL/MDM2 in human MDA-MB-231 cells assessed as reduction in MDM2 protein level at 80 uM after 48 hrs by Western blotting analysis; type: cell-based; design: scale not given: the % may be the effect or the level left
[5] = biological target: T1, von Hippel-Lindau disease tumor suppressor/E3 ubiquitin-protein ligase Mdm2; experiment: Protac activity at VHL/MDM2 in human MDA-MB-231 cells assessed as upregulation of p21 level at 20 to 80 uM after 48 hrs by Western blotting analysis; type: cell-based; details: dose 20-80 µM
[6] = biological target: T1, von Hippel-Lindau disease tumor suppressor/E3 ubiquitin-protein ligase Mdm2; experiment: Protac activity at VHL/MDM2 in human MDA-MB-231 cells assessed as reduction in MDM2 protein level at 80 uM pretreated with MG-132 for 2 hrs followed by compound addition and measured after 48 hrs by Western blotting analysis; type: cell-based
[7] = biological target: T2, E3 ubiquitin-protein ligase Mdm2 (Homo sapiens, UniProt Q00987); experiment: Binding affinity to MDM2 (unknown origin) by SPR assay
Target sequence in this assay (Q00987 whole entry): as the sequence (Q00987 whole entry, looked up) above

[8] = biological target: T2, E3 ubiquitin-protein ligase Mdm2; experiment: Binding affinity to MDM2 (unknown origin) assessed as increase in protein stability incubated for 30 mins by CETSA
Target sequence in this assay (Q00987 whole entry, looked up): as above

MDA-MB-231 [9] = experiment: Induction of apoptosis in human MDA-MB-231 cells assessed as reduction in bcl-2/bax ratio at 20 to 40 uM by Western blotting analysis; type: functional, cell-based; details: dose 20-40 µM
MDA-MB-231 [10] = experiment: Induction of cell cycle arrest in human MDA-MB-231 cells assessed as increase in number of G1 phase cells at 80 uM after 48 hrs by PI/RNase staining based flow cytometry analysis; type: functional
MDA-MB-231 [11] = experiment: Induction of cell cycle arrest in human MDA-MB-231 cells assessed as decrease in number of S phase cells at 80 uM after 48 hrs by PI/RNase staining based flow cytometry analysis; type: functional
MDA-MB-231 [12] = experiment: Induction of cell cycle arrest in human MDA-MB-231 cells assessed as increase in number of G2 phase cells at 80 uM after 48 hrs by PI/RNase staining based flow cytometry analysis; type: functional
MDA-MB-231 [13] = experiment: Induction of G1/S phase arrest in human MDA-MB-231 cells assessed as increase in p21 mRNA expression at 20 to 80 uM by qRT-PCR analysis; type: functional, cell-based; details: dose 20-80 µM
MDA-MB-231 [14] = experiment: Induction of G2/M phase arrest in human MDA-MB-231 cells assessed as decrease in cyclin B1 protein expression at 20 to 80 uM by Western blotting analysis; type: functional, cell-based; details: dose 20-80 µM
MDA-MB-231 [15] = experiment: Induction of apoptosis in human MDA-MB-231 cells assessed as viable cells at 20 uM incubated for 48 hrs by Annexin-V FITC/PI staining based flow cytometry analysis (reference value: 90.3%); type: functional; details: read-out: Activity
MDA-MB-231 [16] = experiment: Induction of apoptosis in human MDA-MB-231 cells assessed as early apoptotic cells at 20 uM incubated for 48 hrs by Annexin-V FITC/PI staining based flow cytometry analysis (reference value: 3.37%); type: functional
MDA-MB-231 [17] = experiment: Induction of apoptosis in human MDA-MB-231 cells assessed as late apoptotic cells at 20 uM incubated for 48 hrs by Annexin-V FITC/PI staining based flow cytometry analysis (reference value: 6.04%); type: functional
MDA-MB-231 [18] = experiment: Induction of apoptosis in human MDA-MB-231 cells assessed as necrotic cells at 20 uM incubated for 48 hrs by Annexin-V FITC/PI staining based flow cytometry analysis (reference value: 0.26%); type: functional
MDA-MB-231 [19] = experiment: Induction of apoptosis in human MDA-MB-231 cells assessed as viable cells at 40 uM incubated for 48 hrs by Annexin-V FITC/PI staining based flow cytometry analysis (reference value: 90.3%); type: functional; details: read-out: Activity
MDA-MB-231 [20] = experiment: Induction of apoptosis in human MDA-MB-231 cells assessed as early apoptotic cells at 40 uM incubated for 48 hrs by Annexin-V FITC/PI staining based flow cytometry analysis (reference value: 3.37%); type: functional
MDA-MB-231 [21] = experiment: Induction of apoptosis in human MDA-MB-231 cells assessed as late apoptotic cells at 40 uM incubated for 48 hrs by Annexin-V FITC/PI staining based flow cytometry analysis (reference value: 6.04%); type: functional
MDA-MB-231 [22] = experiment: Induction of apoptosis in human MDA-MB-231 cells assessed as necrotic cells at 40 uM incubated for 48 hrs by Annexin-V FITC/PI staining based flow cytometry analysis (reference value: 0.26%); type: functional
MDA-MB-231 [23] = experiment: Induction of apoptosis in human MDA-MB-231 cells assessed as viable cells at 80 uM incubated for 48 hrs by Annexin-V FITC/PI staining based flow cytometry analysis (reference value: 90.3%); type: functional; details: read-out: Activity
MDA-MB-231 [24] = experiment: Induction of apoptosis in human MDA-MB-231 cells assessed as early apoptotic cells at 80 uM incubated for 48 hrs by Annexin-V FITC/PI staining based flow cytometry analysis (reference value: 3.37%); type: functional
MDA-MB-231 [25] = experiment: Induction of apoptosis in human MDA-MB-231 cells assessed as late apoptotic cells at 80 uM incubated for 48 hrs by Annexin-V FITC/PI staining based flow cytometry analysis (reference value: 6.04%); type: functional
MDA-MB-231 [26] = experiment: Induction of apoptosis in human MDA-MB-231 cells assessed as necrotic cells at 80 uM incubated for 48 hrs by Annexin-V FITC/PI staining based flow cytometry analysis (reference value: 0.26%); type: functional
MDA-MB-231 [27] = experiment: Downregulation of MDM2 expression in human MDA-MB-231 cells at 20 to 80 uM incubated for 48 hrs by immunofluorescence analysis; type: functional, cell-based; details: dose 20-80 µM
MDA-MB-231 [28] = experiment: Upregulation of p21 expression in human MDA-MB-231 cells at 20 to 80 uM incubated for 48 hrs by immunofluorescence analysis; type: functional, cell-based; details: dose 20-80 µM
MDA-MB-231 [29] = experiment: Inhibition of cell migration in human MDA-MB-231 cells at 80 uM incubated for 24 hrs by wound healing assay; type: functional, cell-based
MDA-MB-231 [30] = experiment: Inhibition of cell migration in human MDA-MB-231 cells at 80 uM incubated for 48 hrs by wound healing assay; type: functional, cell-based
[31] = Toxicity in zebrafish assessed as death at < 50 ug/ml; design: species or system Danio rerio; details: in vivo, dose < 50 µg/ml
[32] = Toxicity in zebrafish assessed as appearance of toxic phenotype at < 50 ug/ml; design: species or system Danio rerio; details: in vivo, dose < 50 µg/ml
[33] = Toxicity in zebrafish assessed as minimum toxic concentration measured after 2 days; design: species or system Danio rerio; details: in vivo, 48 h, time 2 day
[34] = Toxicity in zebrafish assessed as mortality rate at 6.25 ug/ml; design: species or system Danio rerio; details: in vivo, at 6.25 µg/mL, read-out: Activity
[35] = Toxicity in zebrafish assessed as mortality rate at 12.5 ug/ml; design: species or system Danio rerio; details: in vivo, at 12.5 µg/mL, read-out: Activity
[36] = Toxicity in zebrafish assessed as mortality rate at 25 ug/ml; design: species or system Danio rerio; details: in vivo, at 25 µg/mL, read-out: Activity
[37] = Toxicity in zebrafish assessed as mortality rate at 50 ug/ml; design: species or system Danio rerio; details: in vivo, at 50 µg/mL, read-out: Activity
[38] = Toxicity in zebrafish assessed as mortality rate at 100 ug/ml; design: species or system Danio rerio; details: in vivo, at 100 µg/mL, read-out: Activity
MDA-MB-231 [39] = experiment: Antitumor activity against human MDA-MB-231 cells xenografted in zebrafish assessed as inhibition rate at 12.5 ug/ml after 2 days by fluorescence microscopic method; type: functional; design: scale not given: the % may be the effect or the level left; details: dose 12.5 µg/ml; time 2 day
MDA-MB-231 [40] = experiment: Antitumor activity against human MDA-MB-231 cells xenografted in zebrafish assessed as inhibition rate at 25 ug/ml after 2 days by fluorescence microscopic method; type: functional; design: scale not given: the % may be the effect or the level left; details: dose 25 µg/ml; time 2 day
MDA-MB-231 [41] = experiment: Antitumor activity against human MDA-MB-231 cells xenografted in zebrafish assessed as inhibition rate at 50 ug/ml after 2 days by fluorescence microscopic method; type: functional; design: scale not given: the % may be the effect or the level left; details: dose 50 µg/ml; time 2 day

Cc1ncsc1-c1ccc([C@H](C)NC(=O)[C@@H]2C[C@@H](O)CN2C(=O)[C@@H](NC(=O)CCCCc2cn(CCOCCOCCOCCOCCNC(=O)[C@H](C)CC(=O)C[C@@H](C)[C@H]3C[C@H](O)[C@@]4(C)C5=C(C(=O)C[C@]34C)[C@@]3(C)CCC(=O)C(C)(C)[C@@H]3C[C@@H]5O)nn2)C(C)(C)C)cc1
viability at 100 µM (MCF7): 30.6%
viability at 100 µM (MDA-MB-231 [1]): 16.9%
viability at 100 µM (SJSA-1): 61.3%
viability at 100 µM (HepG2): 92.9%
viability at 100 µM [2]: 91.3%
Activity [3]: Dose-Dependent Effect
Activity [4]: 51%
Activity [5]: Active
Activity [6]: inactive
Kd [7]: 38.2 µM
Activity [8]: Active
Activity (MDA-MB-231 [9]): Active
Activity (MDA-MB-231 [10]): Active
Activity (MDA-MB-231 [11]): Active
Activity (MDA-MB-231 [12]): Active
Activity (MDA-MB-231 [13]): Active
Activity (MDA-MB-231 [14]): Active
viability at 20 µM (MDA-MB-231 [15]): 90.1%
Activity (MDA-MB-231 [16]): 4.38%
Activity (MDA-MB-231 [17]): 5.34%
Activity (MDA-MB-231 [18]): 0.21%
viability at 40 µM (MDA-MB-231 [19]): 82.3%
Activity (MDA-MB-231 [20]): 7.17%
Activity (MDA-MB-231 [21]): 10.4%
Activity (MDA-MB-231 [22]): 0.13%
viability at 80 µM (MDA-MB-231 [23]): 41.4%
Activity (MDA-MB-231 [24]): 47.4%
Activity (MDA-MB-231 [25]): 10.4%
Activity (MDA-MB-231 [26]): 0.82%
Activity (MDA-MB-231 [27]): Active
Activity (MDA-MB-231 [28]): Active
inhibition (MDA-MB-231 [29]): Active
inhibition (MDA-MB-231 [30]): Active
Activity [31]: Non-Toxic
Activity [32]: Non-Toxic
MTC [33]: 50 µg/mL
mortality at 6.25 ug/ml [34]: 0%
mortality at 12.5 ug/ml [35]: 0%
mortality at 25 ug/ml [36]: 0%
mortality at 50 ug/ml [37]: 0%
mortality at 100 ug/ml [38]: 13%
Activity (MDA-MB-231 [39]): 16.8%
Activity (MDA-MB-231 [40]): 23.4%
Activity (MDA-MB-231 [41]): 27.2%
